The source of these data is patent publication US7638494B2, “G-type peptides to ameliorate atherosclerosis” (The Regents of the University of California, priority 2002, dated 2009).

Experiment [1] has as its system apo E null mice. Briefly: Protection against LDL-induced monocyte chemotactic activity by HDL from apo E null mice given oral peptides. It is filed as in vivo. The note with it: for potency compared with D-4F in enhancing HDL protective capacity: apo E null mice, added to the drinking water (FIG. 4).
Experimental: FIG. 4 illustrates the effect of oral apoA-1 peptide mimetic and apoJ peptide on HDL protective capacity. […] After 24 hrs blood was collected, plasma fractionated by FPLC and fractions containing LDL (designated as mLDL for murine LDL) and fractions containing HDL (designated as mHDL) were separately pooled and HDL protective capacity against LDL oxidation as determined by LDL-induced monocyte chemotactic activity was determined. For the assay controls the culture wells received no lipoproteins (no additions), mLDL alone (at 200 μg cholesterol/ml), or mLDL+standard normal human HDL (designated as Cont. h HDL, at 350 μg HDL cholesterol/ml).
For testing the murine HDL, mLDL together with murine HDL (+F mHDL or +J mHDL) were added to artery wall cell cultures. […] The murine HDL was used at 100 μg cholesterol/ml.
The test system of experiment [2] is apo E null mice. Briefly: LDL susceptibility to oxidation: ability of LDL from apoE null mice given oral peptides to induce monocyte chemotactic activity. The class given is in vivo. The note with it: added to the drinking water, 24 hrs (FIG. 5). How it is done:
FIG. 5 illustrates the effect of oral apo A-1 peptide mimetic and apoJ peptide on LDL susceptibility to oxidation. […] After 24 hrs blood was collected from the mice shown in FIG. 4, plasma fractionated by FPLC and fractions containing LDL (designated as mLDL for murine LDL) were pooled and LDL susceptibility to oxidation as determined by induction of monocyte chemotactic activity was determined.
Murine LDL, mLDL, from mice that received the D-4F mLDL) or those that received the apoJ peptide (J mLDL) were added to artery wall cell cultures.

In a further experiment the test system is PON1. The note with it: apo E null mice, added to the drinking water, 24 hrs, plasma (FIG. 7).
The subject of experiment [3] is apo E null mice. The note with it: added to the drinking water, 24 hrs, human artery wall co-culture (FIG. 6). How it is done: FIG. 6 illustrates the effect of oral apoA-1 peptide mimetic and apoJ peptide on HDL protective capacity. […] After 24 hrs blood was collected, plasma fractionated by FPLC and fractions containing HDL (designated as mHDL) were pooled and HDL protective capacity against PAPC oxidation as determined by the induction of monocyte chemotactic activity was determined. For the assay controls the culture wells received no lipoproteins (no additions), the phospholipid PAPC at 20 μg /ml+HPODE, at 1.0 μg/ml, or PAPC+HPODE plus standard normal human HDL (at 350 μg HDL cholesterol/ml and designated as +Cont. h HDL).
For testing the murine HDL, PAPC+HPODE together with murine HDL (+F mHDL or +J mHDL) were added to artery wall cell cultures. […] The murine HDL was used at 100 μg cholesterol/ml.

Experiment [4] has as its system Human aortic endothelial cells. Description: Prevention of LDL-induced monocyte chemotactic activity by pre-treatment (pre-incubation) of artery wall cells. The class given is cell-based. The note with it: pre-incubation 6 hrs, washed, then control human LDL 200 μg protein/ml overnight; relative to D-4F (FIG. 2). The procedure:
FIG. 2 illustrates a comparison of the effect of D-4F with the effect of D-J336 on the prevention of LDL induced monocyte chemotactic activity in a pre-incubation. Human aortic endothelial cells were pre-incubated with D-J336 or D-4F at 4, 2, and 1 μg/ml for DJ336 or 100, 50, 25, and 12.5 μg/ml for D-4F for 6 hrs. The cultures were then washed and were incubated with medium alone (no addition), or with control human LDL (200 μg protein/ml), or with control human LDL+control human HDL (350 μg HDL protein/ml) as assay controls. The wells that were pre-treated with peptides received the control human LDL at 200 μg protein/ml. Following overnight incubation, the supernatants were assayed for monocyte chemotactic activity.

The next experiment concerns LDL receptor null mice. Description: HDL protective capacity in LDL receptor null mice given peptide in drinking water. The class given is in vivo. The procedure: D-4F designated as F, or the apoJ peptide made from D amino acids (D-J336, designated as J) was added to the drinking water of LDL receptor null mice (4 per group) at 0.25 or 0.5 mg per ml of drinking water. After 24- or 48-hrs blood was collected from the mice and their HDL was isolated and tested for its ability to protect against LDL-induced monocyte chemotactic activity. Assay controls included culture wells that received no lipoproteins (no addition), or control human LDL alone (designated as LDL, 200 μg cholesterol/ml), or control LDL+control human HDL (designated as +HDL, 350 μg HDL cholesterol). For testing the mouse HDL, the control LDL was added together with mouse HDL (+F HDL or +J HDL) to artery wall cell cultures. The mouse HDL was added at 100 μg cholesterol/ml respectively.

Where two headings read alike, the source gives them in different places.

Experimental for PON1: After 24 hrs blood was collected and plasma was assayed for PON1 activity.

For the substance Ac-LLEQLNEQFNWVSRLANLTQGE-NH2 [D-J336], the “potency compared with D-4F in enhancing HDL protective capacity” value with apo E null mice [1] is given as “as potent as D4F”; in the experiment with apo E null mice [1] (listed as D-J peptide), “as potent as D-4F”. The “activity of murine HDL compared with normal human HDL against LDL-induced monocyte chemotactic activity” value with apo E null mice [1] (apoE null mice, peptide in drinking water, 24 hrs, murine HDL at 100 μg/ml) was “as active as 350 μg/ml of normal human HDL”. In addition, the “potency compared with D-4F in rendering LDL resistant to oxidation by human artery wall cells (induction of monocyte chemotactic activity)” value in the experiment with apo E null mice [2] is reported as “lightly more potent than D-4F”; with apo E null mice [2] (listed as DJ336), “slightly more potent than D4F”. The entries for the “potency compared with D-4F in increasing paraoxonase activity” value in the experiment on PON1 and in the experiment with PON1 (listed as DJ336) were “at least as potent as D-4F” and “at least as potent as D4F”, respectively. For the same substance, the “potency compared with D-4F in causing HDL to inhibit oxidation of PAPC by HPODE (generation of monocyte chemotactic activity)” value is listed as “as potent as D-4F” in the experiment with apo E null mice [3] and “as potent as D4F” in the experiment on apo E null mice [3] (listed as DJ336). Moreover, the “times more potent than D-4F in preventing LDL oxidation by artery wall cells” value in experiment [4] is listed as 10-25 times. The “activity of mouse HDL in preventing control LDL from inducing monocyte chemotactic activity, compared with control human HDL” value in the experiment on LDL receptor null mice (LDL receptor null mice, 0.25 or 0.5 mg per ml drinking water, 24 or 48 hrs, mouse HDL at 100 μg/ml) was “as active as 350 μg/ml of control human HDL”. The “effectiveness compared with D4F in preventing LDL-induced monocyte chemotactic activity” value with LDL receptor null mice (given orally to LDL receptor null mice (FIG. 3)) was “essentially as effective as D4F”.
